Experimental findings from patent publication US9365522B2, “Pyrazole amide derivative” (AMGEN INC., priority 2015, dated 2016) are described below.

The target of the assay is T1, human RORγ-LBD (Homo sapiens, UniProt P51449).
T1 construct: made in house; host or cells: E. coli (BL-21)
T1 sequence (P51449 262-518): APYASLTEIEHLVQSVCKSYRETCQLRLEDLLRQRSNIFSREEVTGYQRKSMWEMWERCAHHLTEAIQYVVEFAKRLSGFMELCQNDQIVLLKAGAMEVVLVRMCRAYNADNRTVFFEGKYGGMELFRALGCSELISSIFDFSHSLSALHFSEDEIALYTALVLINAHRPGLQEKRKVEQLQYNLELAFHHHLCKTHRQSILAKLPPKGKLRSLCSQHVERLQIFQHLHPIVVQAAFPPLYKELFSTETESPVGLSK
Kind of assay: ROR gamma coactivator peptide recruitment Alphascreen assay (RORγ-LBD binding to GRIP1 coactivator peptide). The class given is biochemical. The following applies: 5 nM human RORγ-LBD, 30 nM 7-β-hydroxycholesterol, 50 nM biotinylated GRIP1 coactivator peptide, overnight incubation at room temperature; read-out: result (pIC50, RORγ coactivator peptide recruitment Alphascreen assay) (converted). An outline of the steps:
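His/Flag-tagged human RORγ-LBD (aa 262-518, E. coli-expressed, 5 nM) with agonist 7-β-hydroxycholesterol (30 nM) and biotinylated GRIP1 LXXLL peptide (50 nM) in HEPES pH 7.4 buffer, 2.5% DMSO. Compound 1-in-2 dilutions; Alphascreen bead signal read after overnight incubation at room temperature; pIC50 calculated.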
On the technique in general: In Alpha technology, singlet oxygen from a donor bead excites a nearby acceptor bead.

Molecules are shown by their SMILES.

Take `COc1cc(Cl)c(C(=O)CN(Cc2ccc(F)cc2)C(=O)c2cnn([C@H]3CC[C@H](CC(=O)O)CC3)c2C(F)(F)F)c(Cl)c1` [Example 889, (trans-4-(4-((2-(2,6-dichloro-4-methoxyphenyl)-2-oxoethyl)(4-fluorobenzyl)carbamoyl)-5-(trifluoromethyl)-1H-pyrazol-1-yl)cyclohexyl)acetic acid]: the IC50 was 2.04 nM. As for `Cc1cc(Cl)c(C(=O)CN(CC2(C)CCC2)C(=O)c2cnn([C@H]3CC[C@H](CC(=O)O)CC3)c2C(F)(F)F)c(Cl)c1` [Example 890, (trans-4-(4-((2-(2,6-dichloro-4-methylphenyl)-2-oxoethyl)((1-methylcyclobutyl)methyl)carbamoyl)-5-(trifluoromethyl)-1H-pyrazol-1-yl)cyclohexyl)acetic acid], the figure is 0.708 nM; as for `COc1cc(Cl)c(C(=O)CN(CC2CCC3(CCC3)CC2)C(=O)c2cnn([C@H]3CC[C@@](C)(C(=O)O)CC3)c2C(F)(F)F)c(Cl)c1` [Example 891, trans-4-(4-((2-(2,6-dichloro-4-methoxyphenyl)-2-oxoethyl)(spiro[3.5]non-7-ylmethyl)carbamoyl)-5-(trifluoromethyl)-1 H-pyrazol-1-yl)-1 - methylcyclohexanecarboxylic acid], 15.5 nM. Regarding `CC(C)(C)CN(CCc1c(Cl)cn2ncnc2c1Cl)C(=O)c1cnn([C@H]2CC[C@](C)(C(=O)O)CC2)c1C(F)(F)F` [Example 892, trans-4-(4-((2-(6,8-dichloro[1,2,4]triazolo[1,5-a]pyridin-7-yl)ethyl)(2,2-dimethylpropyl)carbamoyl)-5-(trifluoromethyl)-1H-pyrazol-1-yl)-1-methylcyclohexanecarboxylic acid], the IC50 was 302 nM. With `CC(C)(CN(CC(=O)c1c(Cl)cccc1Cl)C(=O)c1cnn([C@H]2CC[C@](C)(C(=O)O)CC2)c1C(F)(F)F)C(F)(F)F` [Example 893, trans-4-(4-((2-(2,6-dichlorophenyl)-2-oxoethyl)(3,3,3-trifluoro-2,2-dimethylpropyl)carbamoyl)-5-(trifluoromethyl)-1H-pyrazol-1-yl)-1-methylcyclohexanecarboxylic acid], the IC50 is 2.24 nM.
